According to publication PMC3727052 (Bioorganic & medicinal chemistry, 2012):

Key:
[1] = system: Reovirus-1; assay: Virus-induced cytopathicity, reovirus-1 in Vero cells; type: cell-based; settings: read-out: EC50 Reovirus-1
[2] = system: MDCK; settings: MDCK cells, microscopically visible alteration of cell morphology
[3] = system: VZV (OKA & 07/1); assay: VZV plaque formation assay in HEL cells; type: cell-based, varicella-zoster virus; settings: Human alphaherpesvirus 3, HEL, 120 h, read-out: EC50 VZV (OKA & 07/1)
[4] = system: Parainfluenza-3 virus; assay: Virus-induced cytopathicity, parainfluenza-3 virus in Vero cells; type: cell-based; settings: read-out: EC50 Parainfluenza-3 virus
[5] = system: Vero; settings: Vero cells, microscopically visible alteration of cell morphology
[6] = system: HeLa; settings: HeLa cells, microscopically visible alteration of cell morphology
[7] = system: HEL; settings: HEL cells, microscopically visible alteration of cell morphology
[8] = system: RSV; assay: Virus-induced cytopathicity, RSV in HeLa cells; type: cell-based; settings: human respiratory syncytial virus, read-out: EC50 RSV
[9] = system: Influenza virus B; assay: Virus-induced cytopathicity, influenza B in MDCK cells; type: cell-based; settings: unidentified influenza virus, read-out: EC50 Influenza virus B
[10] = system: Influenza virus (AH3N2); assay: Virus-induced cytopathicity, influenza A H3N2 in MDCK cells; type: cell-based; settings: unidentified influenza virus, read-out: EC50 Influenza virus (AH3N2)

Nc1nc2c(sc3ncn([C@H]4C[C@H](O)[C@@H](CO)O4)c32)c(=O)[nH]1 [Compound 5, 1-[(5-Aminoimidazo[4′,5′:4,5]thieno[3,2-d]pyrimidin-3-yl-7-one)]-β-D-2′-deoxyribofuranose]
EC50 [1]: > 100 µM
MCC (minimal cytotoxic concentration) MDCK [2]: 0.8 µM
EC50 [3]: 71.3 to 100 µM
EC50 [4]: > 100 µM
MCC (minimal cytotoxic concentration) Vero [5]: 100 µM
MCC (minimal cytotoxic concentration) HeLa [6]: 100 µM
MCC (minimal cytotoxic concentration) HEL [7]: >100 µM

Nc1ncnc2c1sc1ncn([C@H]3C[C@H](O)[C@@H](CO)O3)c12 [Compound 6, 1-[(7-aminoimidazo[4′,5′:4,5]thieno[3,2-d]pyrimidin-3-yl)]-β-D-2′-deoxyribofuranose]
MCC (minimal cytotoxic concentration) MDCK [2]: 20 µM
EC50 [4]: > 100 µM
MCC (minimal cytotoxic concentration) Vero [5]: >100 µM
MCC (minimal cytotoxic concentration) HeLa [6]: >100 µM
MCC (minimal cytotoxic concentration) HEL [7]: ≥20 µM

NC(=O)c1ncn([C@@H]2O[C@H](CO)[C@@H](O)[C@H]2O)n1 [Ribavirin]
EC50 [8]: 10 µM
EC50 [1]: > 250 µM
EC50 [9]: 4.5 to 9 µM
EC50 [10]: 5.1 to 9 µM
